From publication PMC12069901 (Acta Pharmaceutica Sinica. B, 2025)
pKd: −log10 of the molar value.

What was measured:
PDGF-BB-induced VSMCs [1] = assay: MTT assay, PDGF-BB-induced VSMC proliferation; type: cell-based, rat; conditions: 5 μmol/L for 2 h, then PDGF-BB 25 ng/mL for 24 h
STAT3 [2] = assay: STAT3 dimerization assay and immunoprecipitation; type: cell-based, rat; conditions: PDGF-BB-induced VSMCs; CAB 3–5 μmol/L, AG490 20 μmol/L, stattic 1 μmol/L
VSMCs [3] = assay: MTT cytotoxicity assay in VSMCs; type: cell-based, rat; conditions: 5 μmol/L, 26 h
CDKN1B = assay: Western blot, CDKN1B expression in PDGF-BB-induced VSMCs; type: cell-based, rat; conditions: 24 h, CAB 1–5 μmol/L, stattic 1 μmol/L
MMP9 [4] = assay: Western blot, MMP9 expression; type: cell-based, rat; conditions: 1–5 μmol/L, 24 h
SRC = assay: Western blot, SRC phosphorylation in PDGF-BB-induced VSMCs; type: cell-based, rat; conditions: 5 μmol/L, PDGF-BB 15 min
rat Ciapin1 promoter = assay: Ciapin1 promoter luciferase assay; type: cell-based; conditions: PDGF-BB 6 h
STAT3 [5] = assay: Western blot, STAT3 phosphorylation in PDGF-BB-induced VSMCs; type: cell-based, rat; conditions: for STAT3 phosphorylation: PDGF-BB 24 h, CAB 1–5 μmol/L, stattic 1 μmol/L
VSMCs [6] = assay: Annexin V/PI apoptosis detection assay; type: cell-based, rat; conditions: 5 μmol/L, 26 h, compared with control
cyclin D1 = assay: Western blot, cyclin D1 expression; type: cell-based, rat; conditions: 1–5 μmol/L, 24 h
ERK1/2 = assay: Western blot, ERK1/2 phosphorylation in PDGF-BB-induced VSMCs; type: cell-based, rat; conditions: 1–5 μmol/L, PDGF-BB 15 min
[7] = type: in vivo, Sprague–Dawley rats
p38 = assay: Western blot, p38 phosphorylation in PDGF-BB-induced VSMCs; type: cell-based, rat; conditions: 1–5 μmol/L, PDGF-BB 15 min
PDGFR-β = assay: Western blot, PDGFR-β phosphorylation in PDGF-BB-induced VSMCs; type: cell-based, rat; conditions: 1–5 μmol/L, PDGF-BB 15 min
KLF4 = assay: Western blot, KLF4 expression in PDGF-BB-induced VSMCs; type: cell-based, rat; conditions: 24 h; CAB 1–5 μmol/L, stattic 1 μmol/L
MMP9 [8] = assay: Gelatin zymography, MMP9 activity; type: cell-based, rat; conditions: 1–5 μmol/L, PDGF-BB 24 h
PCNA = assay: Western blot, PCNA expression; type: cell-based, rat; conditions: 1–5 μmol/L, 24 h
CDK2 = assay: Western blot, CDK2 expression; type: cell-based, rat; conditions: 1–5 μmol/L, 24 h
cyclin E1 = assay: Western blot, cyclin E1 expression; type: cell-based, rat; conditions: 1–5 μmol/L, 24 h
rat carotid arteries = assay: Balloon injury-induced neointima formation in rat carotid artery; type: in vivo, Sprague–Dawley rats; conditions: 20 mg/kg orally daily, 14 days
CIAPIN1 [9] = assay: Western blot, CIAPIN1 expression in PDGF-BB-induced VSMCs; type: cell-based, rat; conditions: 24 h; CAB 1–5 μmol/L, stattic 1 μmol/L
CIAPIN1 [10] = assay: CIAPIN1 nuclear accumulation; type: cell-based, rat; conditions: PDGF-BB-induced VSMCs, 24 h
STAT3 [11] = assay: STAT3 dual-luciferase reporter assay; type: cell-based, rat; conditions: PDGF-BB 6 h
STAT3 [12] = assay: STAT3 nuclear translocation; type: cell-based, rat; conditions: PDGF-BB 15 min
phospho-pRb (p-pRb) = assay: Western blot, phospho-pRb; type: cell-based, rat; conditions: 1–5 μmol/L, 24 h
JAK2 = assay: Western blot, JAK2 expression and phosphorylation in PDGF-BB-induced VSMCs; type: cell-based, rat; conditions: for PDGF-BB-induced JAK2 expression: 24 h; for PDGF-BB-induced JAK2 expression / JAK2 phosphorylation: CAB 1–5 μmol/L, stattic 1 μmol/L; for JAK2 phosphorylation: PDGF-BB 24 h
PDGF-BB-induced VSMCs [13] = assay: Cell cycle progression analysis; type: cell-based, rat; conditions: CAB-treated versus PDGF-BB-induced VSMCs, 24 h
AKT = assay: Western blot, AKT phosphorylation in PDGF-BB-induced VSMCs; type: cell-based, rat; conditions: 1–5 μmol/L, PDGF-BB 15 min
SPP1 = assay: Western blot, SPP1 expression in PDGF-BB-induced VSMCs; type: cell-based, rat; conditions: 24 h; CAB 1–5 μmol/L, stattic 1 μmol/L
[14] = tested on: Ciapin1 promoter (STAT3-RE1); assay: ChIP-PCR assay, STAT3 binding to Ciapin1 promoter; type: cell-based, rat; conditions: CAB 2 h, then PDGF-BB 6 h
CDK4 = assay: Western blot, CDK4 expression; type: cell-based, rat; conditions: 1–5 μmol/L, 24 h
His-STAT3 = assay: His-tag pull-down assay with CAB-conjugated Sepharose 6B; type: binding, Mus musculus
[15] = biological target: STAT3 protein (amino acids 127–688) (Homo sapiens, UniProt P40763); assay: Surface plasmon resonance; type: binding; conditions: immobilized STAT3 (127–688 aa), 25 °C
[16] = rat serum, after 2 weeks of CAB administration

Sequence of STAT3 protein (amino acids 127–688) (P40763 127-688): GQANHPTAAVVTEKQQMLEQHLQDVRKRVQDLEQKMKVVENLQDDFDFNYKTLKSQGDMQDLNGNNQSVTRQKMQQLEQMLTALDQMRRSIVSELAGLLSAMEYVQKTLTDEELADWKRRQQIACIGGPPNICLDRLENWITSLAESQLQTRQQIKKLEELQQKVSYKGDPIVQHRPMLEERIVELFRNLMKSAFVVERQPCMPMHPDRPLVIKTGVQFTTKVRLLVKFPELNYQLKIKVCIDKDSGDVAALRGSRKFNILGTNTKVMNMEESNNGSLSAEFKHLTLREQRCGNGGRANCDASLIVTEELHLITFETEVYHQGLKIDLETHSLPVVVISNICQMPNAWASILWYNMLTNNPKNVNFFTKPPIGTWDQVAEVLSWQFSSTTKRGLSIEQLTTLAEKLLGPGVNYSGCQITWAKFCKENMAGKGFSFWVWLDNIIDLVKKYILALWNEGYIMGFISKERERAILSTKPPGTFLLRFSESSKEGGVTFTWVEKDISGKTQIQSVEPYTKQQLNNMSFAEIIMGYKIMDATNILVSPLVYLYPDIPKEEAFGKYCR

SMILES: O=C(Oc1ccc2[nH]c3ccccc3c2c1)c1ccc(O)cc1 [compound 2, 9H-Carbazol-3-yl 4-hydroxybenzoate]
- PDGF-BB-stimulated VSMC proliferation (PDGF-BB-induced VSMCs [1]): significantly inhibited

SMILES: N#C/C(=C/c1ccc(O)c(O)c1)C(=O)NCc1ccccc1 [AG490]
- STAT3 dimerization (STAT3 [2]): inhibitory effect

SMILES: Nc1ccc(C(=O)Oc2ccc3[nH]c4ccccc4c3c2)cc1 [CAB, 9H-Carbazol-3-yl 4-aminobenzoate]
- cytotoxic effects in VSMCs (VSMCs [3]): did not induce cytotoxic effects
- CDKN1B expression (CDKN1B): dose-dependently restored
- PDGF-BB-induced MMP9 expression (MMP9 [4]): significantly inhibited
- PDGF-BB-induced SRC phosphorylation (SRC): did not inhibit
- PDGF-BB-induced CIAPIN1 luciferase expression (rat Ciapin1 promoter): inhibited
- PDGF-BB-induced STAT3 tyrosine (Tyr) 705 phosphorylation (STAT3 [5]; 1–5 μmol/L, PDGF-BB 15 min): significantly inhibited
- STAT3 serine (Ser) 727 phosphorylation (STAT3 [5]; 1–5 μmol/L, PDGF-BB 15 min): without affecting
- STAT3 phosphorylation (STAT3 [5]): attenuated
- cell apoptosis induction (VSMCs [6]): no signs of cell apoptosis induction
- PDGF-BB-induced cyclin D1 expression (cyclin D1): significantly inhibited
- PDGF-BB-stimulated ERK1/2 phosphorylation (ERK1/2): did not affect
- glutamic pyruvic transaminase (GPT/ALT, soluble) level [7, 16]: no alterations
- glutamic-oxaloacetic transaminase 1 (GOT1/AST, soluble) level [7, 16]: no alterations
- histological morphology of liver, heart, lung, and kidney ([7]; rat, 20 mg/kg orally daily): no significant changes
- side effects, such as diarrhea and weight loss ([7]; rat, 20 mg/kg orally daily): did not show any side effects
- cell death induction (TUNEL staining) in carotid arteries ([7]; rat, 14 days post-injury, compared with control group): no signs of cell death induction
- PDGF-BB-stimulated p38 phosphorylation (p38): did not affect
- PDGF-BB-stimulated PDGFR-β phosphorylation (PDGFR-β): did not affect
- STAT3 dimerization (STAT3 [2]): inhibited
- PDGF-BB-induced expression of KLF4 (KLF4): decreased
- MMP9 proteolytic activity (MMP9 [8]): significantly inhibited
- PDGF-BB-induced PCNA expression (PCNA): significantly inhibited
- PDGF-BB-induced CDK2 expression (CDK2): significantly inhibited
- PDGF-BB-induced cyclin E1 expression (cyclin E1): significantly inhibited
- CIAPIN1 expression in the neointima region (rat carotid arteries): remarkably decreased
- arterial intimal areas (rat carotid arteries; BI + CAB vs BI): lower
- circumference of the external elastic lamina (EEL) (rat carotid arteries; BI + CAB vs BI): no differences
- media area (rat carotid arteries; BI + CAB vs BI): no differences
- balloon injury-induced neointima formation (rat carotid arteries; vs BI group): significantly attenuated
- expression of PCNA in carotid arteries (rat carotid arteries; vs BI group): significantly decreased
- PDGF-BB-induced CIAPIN1 expression (CIAPIN1 [9]): significantly inhibited
- CIAPIN1 nuclear accumulation (CIAPIN1 [10]): significantly reduced
- PDGF-BB-induced STAT3 DNA binding activity (luciferase reporter) (STAT3 [11]): inhibited
- PDGF-BB-increased STAT3 phosphorylation and nuclear translocation (STAT3 [12]): blocked
- PDGF-BB-induced phospho-pRb (p-pRb) (phospho-pRb (p-pRb)): significantly inhibited
- PDGF-BB-induced JAK2 phosphorylation (JAK2; 5 μmol/L, PDGF-BB 15 min): did not inhibit
- PDGF-BB-induced JAK2 expression (JAK2): significantly inhibited
- JAK2 phosphorylation (JAK2): attenuated
- G0/G1 phase proportion (PDGF-BB-induced VSMCs [13]): increase
- PDGF-BB-stimulated AKT phosphorylation (AKT): did not affect
- PDGF-BB-induced expression of SPP1 (SPP1): decreased
- binding of STAT3 to the Ciapin1 promoter region (protein/DNA binding) [14]: inhibited
- PDGF-BB-induced CDK4 expression (CDK4): significantly inhibited
- binding to STAT3 with mutated SH2 residues (His-STAT3; Ile59, Arg609, and Glu612 mutated, compared to full-length): did not bind to STAT3 strongly
- pull-down of full-length STAT3 by CAB-conjugated beads (His-STAT3; full-length His-STAT3): successfully pulled down
- pull-down of STAT3 fragments lacking SH2 by CAB-conjugated beads (His-STAT3; ΔSH2): did not pull down

SMILES: N=C(N)Nc1ccc(C(=O)Oc2ccc3[nH]c4ccccc4c3c2)cc1 [compound 3, 9H-Carbazol-3-yl 4-guanidinobenzoate]
- PDGF-BB-stimulated VSMC proliferation (PDGF-BB-induced VSMCs [1]): significantly inhibited

SMILES: O=[N+]([O-])c1ccc2c(c1)S(=O)(=O)C=C2 [Stattic, reference compound]
- CDKN1B expression (CDKN1B): increased
- STAT3 phosphorylation (STAT3 [5]): significantly inhibited
- STAT3 dimerization (STAT3 [2]): inhibitory effect
- PDGF-BB-induced expression of KLF4 (KLF4): inhibited
- PDGF-BB-induced CIAPIN1 expression (CIAPIN1 [9]): significantly inhibited
- CIAPIN1 nuclear accumulation (CIAPIN1 [10]): significantly reduced
- Ka, association rate constant [15]: 1002 mol⁻¹ L⁻¹ s⁻¹
- Kd, dissociation rate constant [15]: 0.009083 s⁻¹
- pKd ([15]; read-out: KD, equilibrium constant): 5.04
- PDGF-BB-induced JAK2 expression (JAK2): significantly inhibited
- JAK2 phosphorylation (JAK2): significantly inhibited
- PDGF-BB-induced expression of SPP1 (SPP1): inhibited

SMILES: CC(=O)Nc1ccc(C(=O)Oc2ccc3[nH]c4ccccc4c3c2)cc1 [compound 4, 9H-Carbazol-3-yl 4-acetamidobenzoate]
- PDGF-BB-stimulated VSMC proliferation (PDGF-BB-induced VSMCs [1]): significantly inhibited
